Data as given in DBAASP.
Values after ≈ are worked out from the molar mass of the structure shown. Values joined by “and” are separate entries in the source; they are usually repeats but may differ in a detail not shown here. Equal entries are not always repeated.

Columns and labels:
Assay in all cases: ≥ marks a high value that may be exact or a test limit, other limits are often not marked, values filed in µg/mL are converted to µM
Bacillus subtilis 1A751 = system: Bacillus subtilis 1A751
[1] = system: Escherichia coli ATCC 25922
[2] = system: Salmonella enterica subsp. enterica serovar Choleraesuis CMCC 50020
[3] = system: Staphylococcus aureus ATCC 25923
[4] = system: Aspergillus flavus KCTC 1375
[5] = system: Candida albicans ATCC 90028
[6] = system: Enterococcus faecium ATCC 19434
Enterococcus faecium = system: Enterococcus faecium
[7] = system: Escherichia coli O157:H7 ATCC 43895
Escherichia coli = system: Escherichia coli
[8] = system: Malassezia furfur KCTC 7744
[9] = system: Pseudomonas aeruginosa ATCC 27853
Pseudomonas aeruginosa = system: Pseudomonas aeruginosa
Staphylococcus aureus = system: Staphylococcus aureus
Escherichia coli O157 = system: Escherichia coli O157
Pseudomonas aeruginosa 1 = system: Pseudomonas aeruginosa 1
Pseudomonas aeruginosa 2 = system: Pseudomonas aeruginosa 2
Pseudomonas aeruginosa 5 = system: Pseudomonas aeruginosa 5
Staphylococcus aureus 1 = system: Staphylococcus aureus 1
Staphylococcus aureus 4 = system: Staphylococcus aureus 4
Acinetobacter baumannii = system: Acinetobacter baumannii
Corynebacterium xerosis = system: Corynebacterium xerosis
[10] = system: Enterococcus faecalis ATCC 29212
Enterococcus faecalis = system: Enterococcus faecalis
[11] = system: Escherichia coli DH5alpha
Escherichia coli W160-37 = system: Escherichia coli W160-37
Klebsiella pneumoniae = system: Klebsiella pneumoniae
[12] = system: Listeria monocytogenes NCTC 7973
[13] = system: Saccharomyces cerevisiae PEP 4/3l
Salmonella typhimurium = system: Salmonella typhimurium
[14] = system: Staphylococcus aureus ATCC 43300
[15] = system: Staphylococcus aureus ATCC 8530
[16] = system: Staphylococcus aureus SAP 0017
[17] = system: Staphylococcus epidermidis
[18] = system: Staphylococcus haemolyticus
[19] = system: Streptococcus pyogenes ATCC 19615
[20] = system: Acinetobacter baumannii ATCC 19606
Acinetobacter junii RT-4 = system: Acinetobacter junii RT-4
Bacillus megaterium Bm11 = system: Bacillus megaterium Bm11
[21] = system: Candida albicans ATCC 10231
Escherichia coli D21 = system: Escherichia coli D21
[22] = system: Pseudomonas aeruginosa ATCC 15692
[23] = system: Pseudomonas syringae pv. tabaci 1918NCPPB
Saccharomyces cerevisiae = system: Saccharomyces cerevisiae
[24] = system: Schizosaccharomyces pombe
[25] = system: Staphylococcus aureus Cowan 1
Staphylococcus capitis 1 = system: Staphylococcus capitis 1
[26] = system: Staphylococcus epidermidis ATCC 12228
[27] = system: Streptococcus pyogenes ATCC 21547
[28] = system: Yersinia pseudotuberculosis YPIII

**Q.** Which MIC (Bacillus subtilis 1A751) does the source give for `CC[C@H](C)[C@H](NC(=O)[C@H](CCCCN)NC(=O)[C@H](CC(=O)O)NC(=O)[C@H](CC(C)C)NC(=O)[C@@H](NC(=O)[C@H](CC(N)=O)NC(=O)[C@H](CC(C)C)NC(=O)[C@H](Cc1ccccc1)NC(=O)[C@H](Cc1ccccc1)NC(=O)[C@H](CCCCN)NC(=O)[C@H](CCCCN)NC(=O)CNC(=O)[C@H](C)NC(=O)[C@H](CCC(N)=O)NC(=O)[C@H](CCCCN)NC(=O)[C@@H](NC(=O)[C@@H](NC(=O)[C@H](CC(=O)O)NC(=O)[C@H](Cc1c[nH]c2ccccc12)NC(=O)[C@H](CC(C)C)NC(=O)CN)[C@@H](C)O)[C@@H](C)CC)C(C)C)C(=O)N[C@@H](CCCN=C(N)N)C(=O)N[C@H]1CSSC[C@@H](C(=O)N[C@@H](CCCN=C(N)N)C(=O)N[C@H](C(=O)O)[C@@H](C)O)NC(=O)CNC(=O)CNC(=O)[C@H](C)NC(=O)[C@H](C(C)C)NC(=O)[C@H](CCCCN)NC1=O` [GLWDTIKQAGKKFFLNVLDKIRCKVAGGCRT] here?
**A.** 1.15 µM (≈ 4 µg/mL)

**Q.** And the MIC [1]?
**A.** 4.61 µM (≈ 16 µg/mL)

**Q.** What about the MIC [2] of the same compound?
**A.** ≥ 36.9 µM

**Q.** And the MIC [3]?
**A.** 4.61 µM (≈ 16 µg/mL)

**Q.** Which results are given for `CC(C)[C@H](NC(=O)[C@H](Cc1cnc[nH]1)NC(=O)[C@H](C)NC(=O)[C@H](C)NC(=O)[C@H](CCCCN)NC(=O)[C@H](CCCCN)NC(=O)[C@H](Cc1ccccc1)NC(=O)[C@H](Cc1ccccc1)NC(=O)[C@H](CO)NC(=O)CNC(=O)[C@H](Cc1c[nH]c2ccccc12)NC(=O)CN)C(=O)NCC(=O)N[C@@H](CCCCN)C(=O)N[C@@H](Cc1cnc[nH]1)C(=O)N[C@H](C(=O)NCC(=O)N[C@@H](CCCCN)C(=O)N[C@@H](C)C(N)=O)C(C)C` [GWGSFFKKAAHVGKHVGKA]?
**A.** MIC [4]: 28.3 µM (≈ 56.9 µg/mL); MIC [5]: ≥ 40 µM; MIC [6]: 28.3 µM (≈ 56.9 µg/mL); MIC (Enterococcus faecium): 28.3 µM (≈ 56.9 µg/mL); MIC [7]: 20 µM (≈ 40.2 µg/mL); MIC (Escherichia coli): 28.3 µM (≈ 56.9 µg/mL); MIC [8]: ≥ 40 µM; MIC [9]: 20 µM (≈ 40.2 µg/mL); MIC (Pseudomonas aeruginosa): 28.3 µM (≈ 56.9 µg/mL); MIC [3]: 20 µM (≈ 40.2 µg/mL); MIC (Staphylococcus aureus): 14.1 µM (≈ 28.4 µg/mL)

**Q.** Which results are given for `CC[C@H](C)[C@H](NC(=O)[C@H](CC(C)C)NC(=O)[C@H](CCCN=C(N)N)NC(=O)[C@@H](NC(=O)[C@H](C)NC(=O)[C@H](CCCCN)NC(=O)[C@H](CCCN=C(N)N)NC(=O)[C@H](CC(C)C)NC(=O)[C@@H](N)CCCN=C(N)N)C(C)C)C(=O)N[C@@H](CCCCN)C(=O)O` [RLRKAVRLIK]?
**A.** MIC (Enterococcus faecium): 5 µM (≈ 6.26 µg/mL); MIC (Escherichia coli O157): 5 µM (≈ 6.26 µg/mL); MIC (Pseudomonas aeruginosa 1): 5 µM (≈ 6.26 µg/mL); MIC (Pseudomonas aeruginosa 2): 3.54 µM (≈ 4.43 µg/mL); MIC (Pseudomonas aeruginosa 5): 2.5 µM (≈ 3.13 µg/mL); MIC (Pseudomonas aeruginosa): 10 µM (≈ 12.5 µg/mL); MIC (Staphylococcus aureus 1): 2.5 µM (≈ 3.13 µg/mL); MIC (Staphylococcus aureus 4): 5 µM (≈ 6.26 µg/mL); MIC (Staphylococcus aureus): 14.1 µM (≈ 17.7 µg/mL)

**Q.** With `CC[C@H](C)[C@H](N)C(=O)N[C@@H](CC(C)C)C(=O)N[C@@H](C)C(=O)N[C@@H](Cc1c[nH]c2ccccc12)C(=O)N[C@@H](CCCCN)C(=O)N[C@@H](Cc1c[nH]c2ccccc12)C(=O)N[C@@H](C)C(=O)N[C@@H](Cc1c[nH]c2ccccc12)C(=O)N[C@@H](Cc1c[nH]c2ccccc12)C(=O)N[C@@H](C)C(=O)N[C@@H](Cc1c[nH]c2ccccc12)C(=O)N[C@@H](CCCN=C(N)N)C(=O)N[C@@H](CCCN=C(N)N)C(N)=O` [ILAWKWAWWAWRR] as the compound, how does the MIC (Acinetobacter baumannii) read?
**A.** 5.6 µM (≈ 10.2 µg/mL)

**Q.** What about the MIC (Corynebacterium xerosis) of the same compound?
**A.** 0.547 µM (≈ 0.999 µg/mL)

**Q.** What about the MIC [10] of the same compound?
**A.** 4.37 µM (≈ 8 µg/mL)

**Q.** What about the MIC (Enterococcus faecalis) of the same compound?
**A.** 2 µM (≈ 3.66 µg/mL)

**Q.** What about the MIC [1] of the same compound?
**A.** 14.7 µM (≈ 26.9 µg/mL)

**Q.** What about the MIC [11] of the same compound?
**A.** ≥ 45 µM

**Q.** What about the MIC (Escherichia coli W160-37) of the same compound?
**A.** 12.2 µM (≈ 22.3 µg/mL)

**Q.** What about the MIC (Escherichia coli) of the same compound?
**A.** 4.37 µM (≈ 8 µg/mL)

**Q.** What about the MIC (Klebsiella pneumoniae) of the same compound?
**A.** 50 µM (≈ 91.4 µg/mL)

**Q.** And the MIC [12]?
**A.** 0.547 µM (≈ 0.999 µg/mL)

**Q.** And the MIC (Pseudomonas aeruginosa)?
**A.** > 100 µM

**Q.** What about the MIC [13] of the same compound?
**A.** 6.7 µM (≈ 12.2 µg/mL)

**Q.** What about the MIC (Salmonella typhimurium) of the same compound?
**A.** ≥ 50 µM

**Q.** What about the MIC [3] of the same compound?
**A.** 2.19 µM (≈ 4 µg/mL)

**Q.** What about the MIC [14] of the same compound?
**A.** 14.7 µM (≈ 26.9 µg/mL)

**Q.** And the MIC [15]?
**A.** 1.55 µM (≈ 2.83 µg/mL)

**Q.** What about the MIC [16] of the same compound?
**A.** 2.19 µM (≈ 4 µg/mL)

**Q.** And the MIC [17]?
**A.** 1.09 µM (≈ 2 µg/mL)

**Q.** What about the MIC [18] of the same compound?
**A.** 1.09 µM and 0.547 µM

**Q.** What about the MIC [19] of the same compound?
**A.** 0.547 µM (≈ 0.999 µg/mL)

**Q.** What does the source list for `CC(C)C[C@H](NC(=O)[C@H](CC(C)C)NC(=O)[C@H](CCCN=C(N)N)NC(=O)CNC(=O)[C@H](CC(C)C)NC(=O)[C@H](CC(C)C)NC(=O)[C@H](CCCCN)NC(=O)[C@H](CO)NC(=O)[C@H](CC(C)C)NC(=O)[C@H](Cc1c[nH]c2ccccc12)NC(=O)[C@H](CCC(N)=O)NC(=O)[C@H](CC(C)C)NC(=O)[C@@H](N)CC(C)C)C(N)=O` [LLQWLSKLLGRLL]?
**A.** MIC [20]: 12 µM (≈ 18.6 µg/mL); MIC (Acinetobacter junii RT-4): 24 µM (≈ 37.2 µg/mL); MIC (Bacillus megaterium Bm11): 1.5 µM (≈ 2.33 µg/mL); MIC [21]: 6 µM (≈ 9.31 µg/mL); MIC [10]: 3 µM (≈ 4.66 µg/mL); MIC [1]: 6 µM (≈ 9.31 µg/mL); MIC (Escherichia coli D21): 12 µM (≈ 18.6 µg/mL); MIC [22]: 12 µM (≈ 18.6 µg/mL); MIC [9]: 24 µM (≈ 37.2 µg/mL); MIC [23]: 6 µM (≈ 9.31 µg/mL); MIC (Saccharomyces cerevisiae): 3 µM (≈ 4.66 µg/mL); MIC [24]: 3 µM (≈ 4.66 µg/mL); MIC [3]: 3 µM (≈ 4.66 µg/mL); MIC [25]: 1.5 µM (≈ 2.33 µg/mL); MIC (Staphylococcus capitis 1): 1.5 µM (≈ 2.33 µg/mL); MIC [26]: 1.5 µM (≈ 2.33 µg/mL); MIC [27]: 6 µM (≈ 9.31 µg/mL); MIC [28]: 3 µM (≈ 4.66 µg/mL)
